Measurements published in PubChem BioAssay AID507.

Test system: Human MGC4172 (short-chain dehydrogenase/reductase, DHRS11)
Assay: DHRS11 SDR ligand binding via Tm shift – biophysical, DSF, SYPRO orange, recombinant human protein (AID 507)
Details: DSF SYPRO orange thermal shift, at 100 µM, protein 2 µM, buffer 10 mM HEPES, pH 7.5, NaCl 150 mM, NADPH 200 µM, hits give high values

CN(CCOc1ccc(CC2SC(=O)NC2=O)cc1)c1ccccn1 (stereo unspecified)
Tm shift: 2.3 Celsius
